Laboratory results reported in patent US20050014696A1, “Additive cytoprotective effects of two bioactive regions of pro-opiomelanocortin hormone” (priority 2001, published 2005).

Test system: 96% ethanol induced gastric lesions
Experiment: 96% ethanol induced gastric lesions cytoprotection model
Format: in vivo, male Wistar rats
Details: 8 animals, mean±standard deviation, saline control 255.5±78.1, p<0.05 compared to controls
Method: Bioactive peptide fragments SYSMEHFRWGKPV and YGGFM were tested individually and in combination, by means of the standard cytoprotection model of the 96% ethanol induced gastric lesions in male Wistar rats (6, 7). In the control group of 8 animals treated with physiological saline the area of gastric lesions was 255.5±78.1 mm^2 (mean±standard deviation, FIG. 1) (7). In the group of 8 animals treated with the combination of peptides SYSMEHFRWGKPV (1 mg/kg) and YGGFM (10 mg/kg) the area of gastric lesions was 0.3±0.7 mm^2 (p<0.05 compared to controls, FIG. 1) (7). In the group of 8 animals treated with peptide SYSMEHFRWGKPV (1 mg/kg) the area of gastric lesions was 5.9±8 mm^2 (p<0.05 compared to controls, FIG. 1) (7). In the group of 8 animals treated with peptide YGGFM (10 mg/kg) the area of gastric lesions was 139.4±36.1 mm^2 (p<0.05 compared to controls, FIG. 1) (7). The combination of peptides SYSMEHFRWGKPV and YGGFM that provided best cytoprotective effect is patented under the name KOMET.
FIG. 1 defines the cytoprotective effects of the bioactive peptide fragments SYSMEHFRWGKPV and YGGFM of the pro-opiomelanocortin molecule, and their combination KOMET, in the model of the ethanol induced gastric lesions in rats.
FIG. 1. […]

Row | Substance | area of gastric lesions (1 mg/kg) [mm^2] | area of gastric lesions (10 mg/kg) [mm^2]
1 | SYSMEHFRWGKPV | 5.9±8 | 
2 | YGGFM |  | 139.4±36.1
